Experimental findings from ChEMBL document CHEMBL6071209, “Design, Synthesis, and Biological Evaluation of a Series of Spiro Analogues as Novel HPK1 Inhibitors” (ACS Med Chem Lett, 2024) are described below.

Data set [1] can be described thus: in vivo. The settings on record: BALB/c, mouse, iv, 1 mg/kg.
Data set [2] in a line: in vivo. Particulars: Sprague-Dawley, rat, iv, 1 mg/kg.
Data set [3] can be described thus: in vivo. Particulars: BALB/c, mouse, iv, 1 mg/kg. This is another data set of the same source.
For data set [4] the following is noted: rat, in vivo, po, 10 mg/kg, 24 h.
Data set [5] can be described thus: in vivo. Particulars: BALB/c, mouse, po, 10 mg/kg.
The conditions of data set [6]: mouse, in vivo, po, 10 mg/kg, 24 h.
Data set [7] is described as follows: in vivo. The settings on record: beagle, dog, po, 2 mg/kg.
For data set [8] the following is noted: mouse, in vivo, iv, 1 mg/kg, 24 h.
Data set [9] is described as follows: Volume of distribution in Beagle dog at 1 mg/kg, iv measured upto 24 hrs by LC-MS/MS method. The settings on record: in vivo. It counts as ADME, organism-based, Canis lupus familiaris.
Data set [10] is described as follows: Volume of distribution in Sprague-Dawley rat at 1 mg/kg, iv measured upto 24 hrs by LC-MS/MS method. Particulars: in vivo. It counts as ADME, organism-based.
Data set [11] is described as follows: Bioavailability in Beagle dog at 1 mg/kg, iv measured upto 24 hrs by LC-MS/MS method. It counts as ADME, organism-based, Canis lupus familiaris. Particulars: in vivo.
Data set [12] is described as follows: Volume of distribution in BALB/c mouse at 1 mg/kg, iv measured upto 24 hrs by LC-MS/MS method. Particulars: in vivo. The format is ADME, organism-based.
The conditions of data set [13]: dog, in vivo, po, 2 mg/kg, 24 h.
The nature of data set [14]: in vivo. The settings on record: Sprague-Dawley, rat, iv, 1 mg/kg. This is another data set of the same source.
A short description of data set [15]: in vivo. The settings on record: Sprague-Dawley, rat, iv, 1 mg/kg. The source holds these as a separate data set.
Data set [16] can be described thus: Clearance in Beagle dog at 1 mg/kg, iv measured upto 24 hrs by LC-MS/MS method. Particulars: in vivo. It counts as ADME, organism-based, Canis lupus familiaris.

For the compound `O=C1NCc2c(-c3cnc4cc(F)ccn34)ccc(Nc3ccc4c(n3)CN(CCN3CC[C@@H](F)C3)C43CCOCC3)c21`, the clearance (in general, the rate of elimination divided by the concentration) at 24 h in the data set “in vivo [1]” was found to be 28 mL/min/kg. For the same compound, the half-life (as a rule, the time in which the quantity being followed falls by half) at 24 h in the data set “in vivo [2]” was 4.1 h; in the data set “in vivo [5]” it was 1.4 h. Also, the bioavailability – broadly, dose-corrected exposure relative to a reference, in per cent – at 24 h in the data set “in vivo [3]” stood at 50%. Further, the AUC/dose in [4] was determined as 43.5 ng·h/mL; in [6], 290.2 ng·h/mL.
In turn, `COC1CCC2(CC1)c1ccc(Nc3ccc(-c4cnc5cc(F)ccn45)c4c3C(=O)NC4)nc1CN2C` (configuration not stated) gave a half-life at 24 h in the data set “in vivo [2]” of 1 h. In [4], the AUC/dose turned out to be 15.3 ng·h/mL.
As to `CN(C)Cc1nc(Nc2ccc(-c3cnc4cc(F)ccn34)c3c2C(=O)NC3)ccc1C1CCOCC1`, the results for the half-life at 24 h in “in vivo [7]” and in “in vivo [5]” were 1.5 h and 3.7 h, respectively. This compound showed a F in data set [8] of 187%. Moreover, the clearance at 24 h in “in vivo [1]” worked out at 138 mL/min/kg; in the data set “in vivo [15]”, 230 mL/min/kg. In addition, the Vd (commonly a proportionality between amount in the body and measured concentration, not a real space) was 24.2 L/kg in data set [9], 12.5 L/kg in data set [10] and 5 L/kg in [12]. In addition, the AUC/dose stood at 31.2 ng·h/mL in data set [4], 6.5 ng·h/mL in data set [13] and 224.5 ng·h/mL in data set [6]. In data set [11], this compound yielded a bioavailability of 4.9%. Besides, the bioavailability at 24 h in the data set “in vivo [14]” came to 38%. The compound further had a clearance in data set [16] of 108 mL/min/kg.
